Source: DBAASP
Values after ≈ are worked out from the molar mass of the structure shown. Each block holds one molecule with its values, some of them ahead of it.

Columns and labels:
Experiment in all cases: ≥ marks a high value that may be exact or a test limit, other limits are often not marked, values filed in µg/mL are converted to µM
[1] = system: Staphylococcus epidermidis KCTC 3096
[2] = system: Candida albicans TIMM 1768
[3] = system: Saccharomyces cerevisiae KCTC 7296
[4] = system: Bacillus subtilis KCTC 1918
[5] = system: Pseudomonas aeruginosa KCTC 1637
[6] = system: Salmonella typhimurium KCTC 1926
[7] = system: Trichosporon beigelii KCTC 7707
Staphylococcus aureus = system: Staphylococcus aureus
Escherichia coli B = system: Escherichia coli B
Klebsiella pneumoniae = system: Klebsiella pneumoniae
[8] = system: Staphylococcus haemolyticus
Enterobacter cloacae = system: Enterobacter cloacae
Bacillus megaterium = system: Bacillus megaterium
Salmonella typhimurium = system: Salmonella typhimurium
[9] = system: Salmonella enterica subsp. enterica serovar Enteritidis
[10] = system: Staphylococcus aureus KCTC 1621
[11] = system: Streptococcus pyogenes KCTC 3096
[12] = system: Escherichia coli KCTC 1682
Proteus vulgaris = system: Proteus vulgaris
[13] = system: Bacillus megaterium KCTC 1096
[14] = system: Fusarium oxysporum f. sp. lycopersici ATCC 201829
[15] = system: Rhizopus stolonifer CECT 2344
[16] = system: Aspergillus niger CECT 2694
[17] = system: Penicillium expansum EPS 26
[18] = system: Pseudomonas syringae pv. syringae DSM 10604
[19] = system: Clavibacter michiganensis subsp. michiganensis DSM 46294
[20] = system: Staphylococcus aureus 90857
[21] = system: Pseudomonas corrugata DSM 7228
[22] = system: Pectobacterium carotovorum subsp. carotovorum DSM 30168
[23] = system: Xanthomonas vesicatoria DSM 50861
[24] = system: Pseudomonas syringae pv. tomato DC3000
Botrytis cinerea = system: Botrytis cinerea
Cladosporium herbarum = system: Cladosporium herbarum
Alternaria alternata = system: Alternaria alternata
[25] = system: Candida tropicalis ATCC 750
Bacillus subtilis 168 = system: Bacillus subtilis 168
Candida albicans SC5314 = system: Candida albicans SC5314
Escherichia coli ESBL = system: Escherichia coli ESBL
Escherichia coli BL21 = system: Escherichia coli BL21
Candida krusei ATCC 6258 = system: Candida krusei ATCC 6258
[26] = system: Cryptococcus neoformans ATCC 208821
[27] = system: Candida parapsilosis ATCC 22019

MIC [1]: 6.3 µM (≈ 8.32 µg/mL)
MIC [2]: 25 µM (≈ 33 µg/mL)
MIC [3]: 25 µM (≈ 33 µg/mL)
MIC [4]: 12.5 µM (≈ 16.5 µg/mL)
MIC [5]: 6.3 µM (≈ 8.32 µg/mL)
MIC [6]: 0.8 µM (≈ 1.06 µg/mL)
MIC [7]: 6.3 µM (≈ 8.32 µg/mL)
SMILES: CC(C)C[C@H](NC(=O)[C@H](CCCCN)NC(=O)[C@H](CC(C)C)NC(=O)[C@H](CCCCN)NC(=O)[C@H](CC(C)C)NC(=O)[C@@H]1CCCN1C(=O)[C@H](CCCCN)NC(=O)[C@H](CCCCN)NC(=O)[C@H](CC(C)C)NC(=O)[C@H](CC(C)C)NC(=O)[C@@H](N)CCCCN)C(N)=O [KLLKKPLKLKL]

MIC (Staphylococcus aureus): > 100 µM
MIC (Escherichia coli B): 25 µM (≈ 65.6 µg/mL)
MIC (Klebsiella pneumoniae): 25 µM (≈ 65.6 µg/mL)
MIC (Enterobacter cloacae): ≥ 50 µM
MIC (Bacillus megaterium): ≥ 100 µM
MIC (Salmonella typhimurium): ≥ 100 µM
MIC [9]: ≥ 100 µM
SMILES: CC[C@H](C)[C@H](NC(=O)[C@@H](NC(=O)[C@@H]1CCCN1C(=O)[C@@H](NC(=O)[C@@H](NC(=O)[C@H](CCCN=C(N)N)NC(=O)[C@@H]1CCCN1C(=O)[C@@H](NC(=O)[C@@H](NC(=O)[C@H](Cc1cnc[nH]1)NC(=O)[C@H](CCCCN)NC(=O)[C@H](C)NC(=O)[C@@H](NC(=O)[C@H](CO)NC(=O)CNC(=O)[C@H](CC(C)C)NC(=O)[C@@H](NC(=O)[C@H](CO)NC(=O)[C@H](Cc1ccccc1)NC(=O)[C@H](CC(C)C)NC(=O)CN)C(C)C)C(C)C)C(C)C)C(C)C)C(C)C)C(C)C)C(C)C)C(=O)N[C@@H](C)C(=O)N[C@@H](CCC(=O)O)C(=O)N[C@@H](Cc1cnc[nH]1)C(=O)N[C@@H](CC(C)C)C(N)=O [GLFSVLGSVAKHVVPRVVPVIAEHL]
MIC [8]: ≥ 50 µM

MIC [10]: 3.12 µM (≈ 7.46 µg/mL)
MIC [11]: 0.78 µM (≈ 1.86 µg/mL)
MIC [4]: 0.78 µM (≈ 1.86 µg/mL)
MIC [5]: 0.78 µM (≈ 1.86 µg/mL)
MIC [6]: 0.78 µM (≈ 1.86 µg/mL)
MIC [12]: 3.12 µM (≈ 7.46 µg/mL)
SMILES: CC[C@H](C)[C@H](NC(=O)[C@H](CCCCN)NC(=O)[C@H](CCCCN)NC(=O)[C@H](Cc1ccccc1)NC(=O)[C@H](CC(C)C)NC(=O)[C@H](CCCCN)NC(=O)[C@H](Cc1c[nH]c2ccccc12)NC(=O)[C@@H](N)CCCCN)C(=O)NCC(=O)N1CCC[C@H]1C(=O)NCC(=O)N[C@@H](CCCCN)C(=O)N[C@@H](Cc1ccccc1)C(=O)N[C@@H](CC(C)C)C(=O)N[C@@H](Cc1cnc[nH]1)C(=O)N[C@@H](CO)C(=O)N[C@@H](C)C(=O)N[C@@H](CCCCN)C(=O)N[C@@H](CCCCN)C(=O)N[C@@H](Cc1ccccc1)C(N)=O [KWKLFKKIGPGKFLHSAKKF]

MIC [10]: 3.12 µM (≈ 6.79 µg/mL)
MIC (Proteus vulgaris): 1.56 µM (≈ 3.39 µg/mL)
MIC [4]: 0.78 µM (≈ 1.69 µg/mL)
MIC [5]: 6.25 µM (≈ 13.6 µg/mL)
MIC [12]: 6.25 µM (≈ 13.6 µg/mL)
MIC [13]: 1.56 µM (≈ 3.39 µg/mL)
SMILES: CC[C@H](C)[C@H](NC(=O)[C@H](CCCCN)NC(=O)[C@H](CCCCN)NC(=O)[C@H](Cc1ccccc1)NC(=O)[C@H](CC(C)C)NC(=O)[C@H](CCCCN)NC(=O)[C@H](Cc1c[nH]c2ccccc12)NC(=O)[C@@H](N)CCCCN)C(=O)N1CCC[C@H]1C(=O)N[C@@H](Cc1ccccc1)C(=O)N[C@@H](CC(C)C)C(=O)N[C@@H](Cc1cnc[nH]1)C(=O)N[C@@H](CC(C)C)C(=O)N[C@@H](C)C(=O)N[C@@H](CCCCN)C(=O)N[C@@H](CCCCN)C(=O)N[C@@H](Cc1ccccc1)C(N)=O [KWKLFKKIPFLHLAKKF]

MIC [14]: 0.849 µM (≈ 1.18 µg/mL)
MIC [15]: ≥ 70.7 µM
MIC [16]: 22.4 µM (≈ 31 µg/mL)
MIC [17]: ≥ 100 µM
SMILES: CC[C@H](C)[C@H](NC(=O)[C@H](CCCCN)NC(=O)[C@H](CCCCN)NC(=O)[C@H](Cc1ccccc1)NC(=O)[C@H](CC(C)C)NC(=O)[C@H](CCCCN)NC(=O)[C@@H](N)CCCCN)C(=O)N[C@@H](CC(C)C)C(=O)N[C@@H](CCCCN)C(=O)N[C@@H](CCCCN)C(=O)N[C@@H](CC(C)C)C(N)=O [KKLFKKILKKL]

MIC [18]: 1.63 µM (≈ 2.5 µg/mL)
MIC [19]: 6.51 µM (≈ 9.99 µg/mL)
MIC [20]: ≥ 62.5 µM
MIC [21]: 0.325 µM (≈ 0.5 µg/mL)
MIC [22]: 6.51 µM (≈ 9.99 µg/mL)
MIC [23]: 3.25 µM (≈ 5 µg/mL)
MIC [24]: 3.25 µM (≈ 5 µg/mL)
SMILES: CC(C)C[C@H](NC(=O)[C@H](CC(C)C)NC(=O)[C@H](CCCCN)NC(=O)[C@@H](NC(=O)[C@H](CCCN=C(N)N)NC(=O)[C@H](CCCCN)NC(=O)[C@H](CCCCN)NC(=O)[C@@H](N)CCCN=C(N)N)C(C)C)C(=O)N[C@@H](CCCCN)C(=O)N[C@@H](CCCN=C(N)N)C(=O)N[C@@H](CC(C)C)C(=O)N[C@H](C(N)=O)C(C)C [RKKRVKLLKRLV]

MIC [18]: 18.2 µM (≈ 40 µg/mL)
MIC (Botrytis cinerea): ≥ 45.4 µM
MIC (Cladosporium herbarum): ≥ 45.4 µM
MIC [19]: 9.08 µM (≈ 20 µg/mL)
MIC [21]: 18.2 µM (≈ 40 µg/mL)
MIC (Alternaria alternata): ≥ 45.4 µM
MIC [22]: 18.2 µM (≈ 40 µg/mL)
MIC [23]: 18.2 µM (≈ 40 µg/mL)
MIC [24]: 18.2 µM (≈ 40 µg/mL)
SMILES: CC[C@H](C)[C@H](NC(=O)[C@@H](NC(=O)CNC(=O)[C@H](C)NC(=O)[C@H](CCSC)NC(=O)[C@@H](NC(=O)CNC(=O)[C@H](Cc1ccccc1)NC(=O)[C@@H](NC(=O)[C@H](CC(C)C)NC(=O)[C@@H](NC(=O)[C@H](CC(C)C)NC(=O)[C@H](CCCCN)NC(=O)[C@H](CCCN=C(N)N)NC(=O)[C@@H](N)CCCCN)[C@@H](C)O)C(C)C)C(C)C)C(C)C)C(=O)NCC(=O)N[C@H](C(=O)N[C@@H](CCCCN)C(=O)N[C@@H](CCCCN)C(=O)N[C@@H](CCCN=C(N)N)C(N)=O)[C@@H](C)O [KRKLTLVFGVMAGVIGTKKR]

MIC (Staphylococcus aureus): 30 µM (≈ 44 µg/mL)
MIC [25]: ≥ 100 µM
MIC (Bacillus subtilis 168): 5 µM (≈ 7.33 µg/mL)
MIC (Candida albicans SC5314): ≥ 800 µM
MIC (Escherichia coli ESBL): 20 µM (≈ 29.3 µg/mL)
MIC (Escherichia coli BL21): 30 µM (≈ 44 µg/mL)
MIC (Candida krusei ATCC 6258): ≥ 100 µM
MIC [26]: 25 µM (≈ 36.6 µg/mL)
MIC [27]: ≥ 1600 µM
SMILES: CC[C@H](C)[C@H](N)C(=O)N[C@H](C(=O)N[C@@H](CCCCN)C(=O)N[C@@H](CCCCN)C(=O)N[C@H](C(=O)N[C@H](C(=O)N[C@@H](CCCCN)C(=O)N[C@@H](CCCCN)C(=O)N[C@H](C(=O)N[C@H](C(=O)N[C@@H](CCCCN)C(=O)N[C@@H](CCCCN)C(N)=O)[C@@H](C)CC)[C@@H](C)CC)[C@@H](C)CC)[C@@H](C)CC)[C@@H](C)CC [IIKKIIKKIIKK]
